Results as given in ChEMBL document CHEMBL1201862, “PubChem BioAssay data set” (2004).
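Five compound concentrations were applied to cells in 96-well plates for 48 hours; endpoints were derived by simple linear interpolation of the resulting dose-response curve. GI50: concentration for 50% inhibition of growth.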 Calls of active or inactive are those of the source. No stated cut-off is given here; in the data, active = GI50 up to about 1.1 µM and inactive = higher.

Experiments:
Assay in all cases: NCI anticancer screen, dose series, 48 h
[1] = test system: SN12C
[2] = test system: KM12
[3] = test system: HT-29
[4] = test system: SF-295
[5] = test system: MCF7
[6] = test system: NCI-H23
[7] = test system: TK-10
[8] = test system: OVCAR-3
[9] = test system: IGROV-1
[10] = test system: UACC-62
[11] = test system: SK-OV-3
[12] = test system: NCI-H522
[13] = test system: MDA-MB-435
[14] = test system: M14
[15] = test system: Malme-3M
[16] = test system: Hs-578T
[17] = test system: EKVX
[18] = test system: CCRF-CEM
[19] = test system: SNB-75
[20] = test system: HOP-62
[21] = test system: DU-145
[22] = test system: SW-620
[23] = test system: OVCAR-5
[24] = test system: A498
[25] = test system: NCI-H460
[26] = test system: U-251
[27] = test system: UACC-257
[28] = test system: HCT-15
[29] = test system: RPMI-8226
[30] = test system: SF-539
[31] = test system: OVCAR-4
[32] = test system: PC-3
[33] = test system: K562
[34] = test system: 786-0
[35] = test system: SF-268
[36] = test system: RXF 393
[37] = test system: OVCAR-8
[38] = test system: T47D
[39] = test system: HCT-116
[40] = test system: NCI/ADR-RES
[41] = test system: LOX IMVI
[42] = test system: BT-549
[43] = test system: ACHN
[44] = test system: COLO 205
[45] = test system: HL-60
[46] = test system: MDA-MB-231
[47] = test system: SK-MEL-28
[48] = test system: MOLT-4
[49] = test system: SK-MEL-2
[50] = test system: HCC 2998
[51] = test system: CAKI-1
[52] = test system: A549
[53] = test system: SNB-19
[54] = test system: MDA-N
[55] = test system: HOP-92
[56] = test system: SR
[57] = test system: UO-31
[58] = test system: SK-MEL-5
[59] = test system: NCI-H226

O=C(N/N=C(COc1ccccc1Cl)\N=C\c1ccncc1)c1ccncc1
GI50 [1]: > 100 µM (inactive)
GI50 [2]: > 100 µM (inactive)
GI50 [3]: > 100 µM (inactive)
GI50 [4]: > 100 µM (inactive)
GI50 [5]: > 100 µM (inactive)
GI50 [6]: > 100 µM (inactive)
GI50 [7]: > 100 µM (inactive)
GI50 [8]: > 100 µM (inactive)
GI50 [9]: > 100 µM (inactive)
GI50 [10]: > 100 µM (inactive)
GI50 [11]: > 100 µM (inactive)
GI50 [12]: > 100 µM (inactive)
GI50 [13]: > 100 µM (inactive)
GI50 [14]: > 100 µM (inactive)
GI50 [15]: > 100 µM (inactive)
GI50 [16]: > 100 µM (inactive)
GI50 [17]: > 100 µM (inactive)
GI50 [18]: > 100 µM (inactive)
GI50 [19]: 15.9 µM (inactive)
GI50 [20]: > 100 µM (inactive)
GI50 [21]: > 100 µM (inactive)
GI50 [22]: > 100 µM (inactive)
GI50 [23]: > 100 µM (inactive)
GI50 [24]: > 100 µM (inactive)
GI50 [25]: > 100 µM (inactive)
GI50 [26]: > 100 µM (inactive)
GI50 [27]: > 100 µM (inactive)
GI50 [28]: > 100 µM
GI50 [29]: > 100 µM (inactive)
GI50 [30]: > 100 µM (inactive)
GI50 [31]: > 100 µM (inactive)
GI50 [32]: > 100 µM (inactive)
GI50 [33]: > 100 µM (inactive)
GI50 [34]: > 100 µM (inactive)
GI50 [35]: > 100 µM (inactive)
GI50 [36]: > 100 µM (inactive)
GI50 [37]: > 100 µM (inactive)
GI50 [38]: > 100 µM (inactive)
GI50 [39]: > 100 µM (inactive)
GI50 [40]: > 100 µM (inactive)
GI50 [41]: > 100 µM (inactive)
GI50 [42]: > 100 µM (inactive)
GI50 [43]: > 100 µM (inactive)
GI50 [44]: > 100 µM (inactive)
GI50 [45]: > 100 µM (inactive)
GI50 [46]: > 100 µM (inactive)
GI50 [47]: > 100 µM (inactive)
GI50 [48]: 61.1 µM (inactive)
GI50 [49]: > 100 µM (inactive)
GI50 [50]: > 100 µM (inactive)
GI50 [51]: > 100 µM (inactive)
GI50 [52]: > 100 µM (inactive)
GI50 [53]: > 100 µM (inactive)
GI50 [54]: > 100 µM (inactive)
GI50 [55]: > 100 µM (inactive)

CCCCCCCCCC1(N=[N+]=[N-])C(=O)c2ccccc2N(C)C1=O (centres undefined)
GI50 [1]: 26.1 µM (inactive)
GI50 [2]: 48 µM (inactive)
GI50 [3]: 30.4 µM (inactive)
GI50 [4]: 42.2 µM (inactive)
GI50 [5]: 29.9 µM (inactive)
GI50 [6]: 25.6 µM (inactive)
GI50 [7]: 32.3 µM (inactive)
GI50 [8]: 25 µM (inactive)
GI50 [9]: 27.2 µM (inactive)
GI50 [10]: 17.3 µM (inactive)
GI50 [11]: 25.1 µM (inactive)
GI50 [13]: 2.58 µM (inactive)
GI50 [14]: 27 µM (inactive)
GI50 [15]: 28.1 µM (inactive)
GI50 [16]: 24.3 µM (inactive)
GI50 [18]: 16.8 µM (inactive)
GI50 [19]: 29.9 µM (inactive)
GI50 [20]: 35.8 µM (inactive)
GI50 [21]: 28.7 µM (inactive)
GI50 [22]: 19.3 µM (inactive)
GI50 [23]: 31.9 µM (inactive)
GI50 [24]: 20.8 µM (inactive)
GI50 [25]: 37.2 µM (inactive)
GI50 [56]: 35.4 µM (inactive)
GI50 [26]: 2.22 µM (inactive)
GI50 [27]: 32.9 µM (inactive)
GI50 [28]: 30.3 µM
GI50 [29]: 39.9 µM (inactive)
GI50 [30]: 70 µM (inactive)
GI50 [31]: 67.1 µM (inactive)
GI50 [32]: 19.4 µM (inactive)
GI50 [33]: 19.8 µM (inactive)
GI50 [34]: 38.5 µM (inactive)
GI50 [35]: 40 µM (inactive)
GI50 [36]: 22.6 µM (inactive)
GI50 [38]: 3.4 µM (inactive)
GI50 [39]: 21.1 µM (inactive)
GI50 [40]: 26.7 µM (inactive)
GI50 [41]: 15.3 µM (inactive)
GI50 [42]: 28.1 µM (inactive)
GI50 [43]: 32.3 µM (inactive)
GI50 [44]: 32 µM (inactive)
GI50 [45]: > 100 µM (inactive)
GI50 [47]: 28.8 µM (inactive)
GI50 [48]: 7.13 µM (inactive)
GI50 [57]: 19.4 µM (inactive)
GI50 [49]: 25.4 µM (inactive)
GI50 [50]: 33 µM (inactive)
GI50 [51]: 34.4 µM (inactive)
GI50 [52]: 25.5 µM (inactive)
GI50 [53]: 54.7 µM (inactive)
GI50 [58]: 13 µM (inactive)
GI50 [54]: 30.7 µM (inactive)
GI50 [55]: 20.2 µM (inactive)

COc1ccc(/C=C2\CCC(C)/C(=C\c3ccc(OC)c(OC)c3)C2=O)cc1OC (centres undefined)
GI50 [1]: 7.29 µM (inactive)
GI50 [2]: 2.55 µM (inactive)
GI50 [3]: 4.38 µM (inactive)
GI50 [4]: 5.36 µM (inactive)
GI50 [5]: 4.85 µM (inactive)
GI50 [6]: 3.94 µM (inactive)
GI50 [7]: 2.61 µM (inactive)
GI50 [8]: 13.6 µM (inactive)
GI50 [9]: 2.88 µM (inactive)
GI50 [10]: 6.21 µM (inactive)
GI50 [11]: 9.2 µM (inactive)
GI50 [13]: 3.76 µM (inactive)
GI50 [14]: 5.38 µM (inactive)
GI50 [15]: 4.58 µM (inactive)
GI50 [16]: 12.6 µM (inactive)
GI50 [17]: 2.13 µM (inactive)
GI50 [18]: 2.11 µM (inactive)
GI50 [21]: 3.73 µM (inactive)
GI50 [22]: 6.59 µM (inactive)
GI50 [23]: 3.59 µM (inactive)
GI50 [24]: 9.08 µM (inactive)
GI50 [26]: 5.43 µM (inactive)
GI50 [27]: 2.88 µM (inactive)
GI50 [28]: 5.37 µM
GI50 [29]: 2.51 µM (inactive)
GI50 [59]: 4.65 µM (inactive)
GI50 [30]: 3.42 µM (inactive)
GI50 [32]: 3.39 µM (inactive)
GI50 [33]: 3.36 µM (inactive)
GI50 [34]: 5.11 µM (inactive)
GI50 [35]: 6.89 µM (inactive)
GI50 [36]: 5.06 µM (inactive)
GI50 [37]: 3.76 µM (inactive)
GI50 [38]: 3.35 µM (inactive)
GI50 [39]: 3.78 µM (inactive)
GI50 [40]: 3.5 µM (inactive)
GI50 [41]: 4.33 µM (inactive)
GI50 [42]: 4.6 µM (inactive)
GI50 [43]: 4.79 µM (inactive)
GI50 [44]: 8.39 µM (inactive)
GI50 [45]: 1.73 µM (inactive)
GI50 [46]: 7.8 µM (inactive)
GI50 [47]: 10.7 µM (inactive)
GI50 [48]: 3.23 µM (inactive)
GI50 [57]: 8.45 µM (inactive)
GI50 [49]: 3.82 µM (inactive)
GI50 [51]: 5.82 µM (inactive)
GI50 [53]: 11.2 µM (inactive)
GI50 [58]: 3.61 µM (inactive)
GI50 [54]: 5.87 µM (inactive)

CC(N)C(C)Cc1ccccc1 (centres undefined)
GI50 [1]: > 100 µM (inactive)
GI50 [2]: > 100 µM (inactive)
GI50 [3]: > 100 µM (inactive)
GI50 [4]: > 100 µM (inactive)
GI50 [5]: > 100 µM (inactive)
GI50 [6]: > 100 µM (inactive)
GI50 [7]: > 100 µM (inactive)
GI50 [8]: > 100 µM (inactive)
GI50 [9]: > 100 µM (inactive)
GI50 [10]: > 100 µM (inactive)
GI50 [11]: > 100 µM (inactive)
GI50 [12]: > 100 µM (inactive)
GI50 [13]: > 100 µM (inactive)
GI50 [14]: > 100 µM (inactive)
GI50 [15]: > 100 µM (inactive)
GI50 [16]: 77.1 µM (inactive)
GI50 [17]: > 100 µM (inactive)
GI50 [19]: > 100 µM (inactive)
GI50 [20]: > 100 µM (inactive)
GI50 [21]: > 100 µM (inactive)
GI50 [22]: > 100 µM (inactive)
GI50 [23]: > 100 µM (inactive)
GI50 [24]: > 100 µM (inactive)
GI50 [25]: > 100 µM (inactive)
GI50 [26]: > 100 µM (inactive)
GI50 [27]: > 100 µM (inactive)
GI50 [28]: > 100 µM
GI50 [29]: > 100 µM (inactive)
GI50 [59]: > 100 µM (inactive)
GI50 [31]: > 100 µM (inactive)
GI50 [32]: > 100 µM (inactive)
GI50 [33]: > 100 µM (inactive)
GI50 [34]: > 100 µM (inactive)
GI50 [35]: > 100 µM (inactive)
GI50 [36]: > 100 µM (inactive)
GI50 [37]: > 100 µM (inactive)
GI50 [38]: > 100 µM (inactive)
GI50 [39]: > 100 µM (inactive)
GI50 [40]: > 100 µM (inactive)
GI50 [41]: > 100 µM (inactive)
GI50 [42]: > 100 µM (inactive)
GI50 [43]: > 100 µM (inactive)
GI50 [44]: > 100 µM (inactive)
GI50 [45]: > 100 µM (inactive)
GI50 [46]: > 100 µM (inactive)
GI50 [47]: > 100 µM (inactive)
GI50 [48]: > 100 µM (inactive)
GI50 [57]: > 100 µM (inactive)
GI50 [50]: > 100 µM (inactive)
GI50 [51]: > 100 µM (inactive)
GI50 [52]: > 100 µM (inactive)
GI50 [53]: > 100 µM (inactive)
GI50 [58]: > 100 µM (inactive)
GI50 [54]: > 100 µM (inactive)
GI50 [55]: 64.4 µM (inactive)
